Measurements as given in patent US6914064B2, “1,4-Disubstituted piperazine derivatives useful as uro-selective α1-adrenoceptor blockers” (Ranbaxy Laboratories Limited, priority 2000, dated 2005).

Key:
[1] = target: T1, α1B adrenoceptor (spleen) (Rattus norvegicus, UniProt P15823); experiment: In vitro functional study, antagonism of phenylepinephrine-induced contraction of spleen; type: biochemical; settings: tested compound at 0.1, 1 and 10 mM, read-out: α Adrenoceptor Subtype (pKB) α1B (converted)
T1 construct: Isolated tissues were mounted in organ bath containing Krebs Henseleit buffer; from tissue; host or cells: isolated spleen of male wistar rats
T1 sequence (P15823 1-515): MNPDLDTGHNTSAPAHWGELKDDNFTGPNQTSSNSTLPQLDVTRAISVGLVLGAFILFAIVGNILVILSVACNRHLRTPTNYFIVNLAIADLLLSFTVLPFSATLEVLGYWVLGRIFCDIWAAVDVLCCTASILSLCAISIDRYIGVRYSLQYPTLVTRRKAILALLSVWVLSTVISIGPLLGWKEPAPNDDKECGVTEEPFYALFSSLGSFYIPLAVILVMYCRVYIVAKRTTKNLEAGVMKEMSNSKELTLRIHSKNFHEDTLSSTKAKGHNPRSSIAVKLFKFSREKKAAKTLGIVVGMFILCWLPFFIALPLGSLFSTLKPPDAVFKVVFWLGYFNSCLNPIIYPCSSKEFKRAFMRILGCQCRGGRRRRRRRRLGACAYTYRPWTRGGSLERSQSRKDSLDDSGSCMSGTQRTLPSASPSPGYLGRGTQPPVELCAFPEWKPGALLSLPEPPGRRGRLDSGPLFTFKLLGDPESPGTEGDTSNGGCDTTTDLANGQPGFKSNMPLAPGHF
Source text: In order to study selectivity of action of these compounds towards different α-adrenoceptor subtypes, the ability of these compounds to antagonise α1-adrenoceptor agonist induced contractile response on aorta (α1Dprostate (α1A and spleen (α1B was studied. Aorta and spleen tissues were isolated from urethane anaesthetised (1.5 gm/kg) male wistar rats. Isolated tissues were mounted in organ bath containing Krebs Henseleit buffer of following composition (mM): NaCl 118; KCl 4.7; CaCl2 2.5; MgSO4. 7H2O 1.2; NaHCO3 25; KH2PO41.2; glucose 11.5. Buffer was maintained at 37° C. and aereated with a mixture of 95% O2 and 5% CO2. A resting tension of 2 g (aorta) or 1 g (spleen and prostate)was applied to tissues. Contractile response was monitored using a force displacement transducer and recorded on chart recorders. Tissues were allowed to equilibrate for 2 hours. At the end of equilibration period, concentration response curves to norepinephrine (aorta) and phenylepinephrine (spleen and prostate) were obtained in absence and presence of tested compound (at concentration of 0.1,1 and 10 mM). Antagonist affinity was calculated and expressed as pKB vales in Table II.

α1B adrenoceptor = target: T2, α1B adrenoceptor (Rattus norvegicus, UniProt P15823); experiment: Receptor binding assay, displacement of [3H]prazosin, rat liver membranes; settings: [3H]prazosin displacement, rat liver membranes; read-out: α1B (Rat liver) Ki
T2 construct: from tissue; host or cells: rat liver membranes
T2 sequence (P15823 1-515): T1 sequence (P15823 1-515)
Outline: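 Rat liver membranes (150-250 μg protein) incubated with [3H]prazosin in 50 mM Tris HCl, 5 mM EDTA, pH 7.4, 1 h at 24-25° C; nonspecific binding with 300 nM prazosin. Bound radioactivity counted after filtration; IC50 by nonlinear fit, Ki via Cheng-Prusoff.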

[2] = system: phenylephrine response on mean arterial pressure (MAP) and intraurethral pressure (IUP); experiment: In vivo uroselectivity study in conscious beagle dogs; settings: for Area Under Curve IUP / Area Under Curve MAP: percent change of phenylephrine (16 μg/kg i.v.) response, 0.5-24 hours
Source text: In order to assess the uroselectivity in vivo, the effects of these compounds were studied on mean arterial pressure (MAP) and intraurethral pressure (IUP) in conscious beagle dogs as per the method of Brune et. al. (Pharmacol 1996, 53:356-368). Briefly, male dogs were instrumented for chronic continuous measurement of arterial blood pressure by implanting a telemetry transmitter (TL11M2-D70-PCT, Data Sci. International, St. Paul, Minn. USA) into the femoral artery, two weeks prior to the study. During the recovery period, the animal was acclimatized to stay in the sling restraint. On the day of testing, overnight fasted animal was placed in the sling restraint. A Swan-Ganz. Balloon tipped catheter was introduced into the urethra at the level of prostate and the balloon was inflated (Brune. et. al. 1996). After recording the base line readings, effect of 16 μg/kg, phenylephrine (i.v.) on MAP and IUP was recorded. The response of phenylephrine to MAP and IUP were recorded at 0.5, 1, 2, 3, 4, 6, 9 and 24 hours after the oral administration of vehicle or the test drug. The changes in MAP was recorded on line using Dataquest Software (Data Sci. International. St. Paul, Minn. USA) and IUP was recorded on a Grass Polygraph (Model 7, Grass Instruments, USA). The change in phenylephrine response on MAP and IUP administration after the test drug administration was calculated as percent change of that of control values. Area under curve was calculated and the ratio of the values for MAP and IUP was used for calculating the uroselectivity (Table III)

| Kb [1] [nM] | Ki (α1B adrenoceptor) [nM] | melting point [°C] | Compound | Uroselectivity Ratio IUP/MAP ([2]; 100 μg/kg p.o.) | Area Under Curve IUP ([2]; 100 μg/kg p.o.) | Area Under Curve MAP ([2]; 100 μg/kg p.o.) | Uroselectivity Ratio IUP/MAP ([2]; 10 μg/kg p.o.) | Area Under Curve IUP ([2]; 10 μg/kg p.o.) | Area Under Curve MAP ([2]; 10 μg/kg p.o.) | Uroselectivity Ratio IUP/MAP ([2]; 3 μg/kg p.o.) | Area Under Curve IUP ([2]; 3 μg/kg p.o.) | Area Under Curve MAP ([2]; 3 μg/kg p.o.) |
| --- | --- | --- | --- | --- | --- | --- | --- | --- | --- | --- | --- | --- |
| 21.9 | 73 | 184 to 185 | COc1ccccc1N1CCN(CCCN2C(=O)C3CC=CCC3C2=O)CC1.Cl (stereo not drawn) [Compound 01, 2-[3-{4-(2-Methoxyphenyl)piperazin-1-yl}propyl]-3a,4,7,7a-tetrahydro-1H-isoindole-1,3(2H)-dione hydrochloride] | 5.54 | 514 | 93 |  |  |  |  |  |  |
| 5.25 | 19 | 221.9 to 222.7 | CCOc1ccccc1N1CCN(CCCN2C(=O)C3CC=CCC3C2=O)CC1.Cl (stereo not drawn) [Compound 11, 2-[3-{4-(2-Ethoxyphenyl)piperazin-1-yl}propyl]-3a,4,7,7a-tetrahydro-1H-isoindole-1,3(2H)-dione hydrochloride] |  |  |  | 66 | 661 | 10 |  |  |  |
| 19.5 | 28 | 223 to 224 | CC(C)Oc1ccccc1N1CCN(CCCN2C(=O)C3CC=CCC3C2=O)CC1.Cl (stereo not drawn) [Compound 23, 2-[3-{4-(2-Isopropoxyphenyl)piperazin-1-yl}propyl]-3a,4,7,7a-tetrahydro-1H-isoindole-1,3(2H)-dione hydrochloride] |  |  |  |  |  |  | 4 | 790 | 197 |
| 14.1 | 28 | 193 to 194 | CCCOc1ccccc1N1CCN(CCCN2C(=O)C3CC=CCC3C2=O)CC1.Cl (stereo not drawn) [Compound 24, 2-[3-{4-(2-Propoxyphenyl)piperazin-1-yl}propyl]-3a,4,7,7a-tetrahydro-1H-isoindole-1,3(2H)-dione hydrochloride] |  |  |  |  |  |  | 7.6 | 522 | 68 |
